The values that follow come from ChEMBL document CHEMBL1201862, “PubChem BioAssay data set” (2004).

Each structure is given as a SMILES string.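 Assay format: 96-well plates, 48-hour exposure. The concentration for 50% growth inhibition is given as GI50.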 The source made the active and inactive calls. Cut-off read from the data, not from the text of the source: active = GI50 up to about 1.1 µM and inactive = higher.

Among the test systems are LOX IMVI; HL-60; NCI-H522; SF-539; ACHN; UACC-62; SW-620; HOP-62; NCI-H460; RXF 393; MCF7; NCI-H226; DU-145; SR; RPMI-8226; COLO 205; CAKI-1; BT-549; CCRF-CEM; KM12.
Common to all, as to assay: NCI anticancer screen, dose series, 48 h

Take `Cc1noc2nnn(-c3ccc(Cl)cc3)c(=O)c12`: the GI50 in the experiment with LOX IMVI was 2.5 µM (inactive); in the experiment with HL-60, 1.39 µM (inactive); in the experiment with NCI-H522, 0.5 µM (active); in the experiment with SF-539, 0.223 µM (active); in the experiment with ACHN it was 3.59 µM (inactive); in the experiment on UACC-62, 4.43 µM (inactive). Further, the GI50 is 0.67 µM (active) with SW-620; 12.8 µM (inactive) in the experiment on HOP-62; 6.43 µM (inactive) in the experiment on NCI-H460; 0.879 µM (active) with RXF 393; 2.67 µM (inactive) with MCF7; 2.61 µM (inactive) in the experiment on NCI-H226. Moreover, the GI50 with DU-145 was 3.72 µM (inactive); in the experiment with SR it was 1.21 µM (inactive); with RPMI-8226 it was 0.36 µM (active); in the experiment with COLO 205, 2.96 µM (inactive); in the experiment on CAKI-1 it was 2.05 µM (inactive); with BT-549, 3.16 µM (inactive). The GI50 was 0.355 µM (active) with CCRF-CEM and 11.7 µM (inactive) with KM12.
For `COc1cc2c(c3c1c(=O)c1ccccc1n3C)C=CC1(CCCC1)O2`, the GI50 with LOX IMVI was 1.02 µM (active); in the experiment on HL-60 it was 7.29 µM (inactive); with NCI-H522, 16.3 µM (inactive); in the experiment on SF-539, 4.16 µM (inactive); in the experiment on ACHN, 16.3 µM (inactive); in the experiment with UACC-62, 13.1 µM (inactive). In addition, the GI50 in the experiment with SW-620 was 20.4 µM (inactive); in the experiment with HOP-62, 12.8 µM (inactive); in the experiment on NCI-H460, 10.2 µM (inactive); with RXF 393, 5.61 µM (inactive); with MCF7, 16 µM (inactive); in the experiment with NCI-H226, 16 µM (inactive). In addition, the GI50 was 17.6 µM (inactive) in the experiment on DU-145; 7.94 µM (inactive) in the experiment with SR; 1.81 µM (inactive) with RPMI-8226; 13.6 µM (inactive) with COLO 205; 2.54 µM (inactive) in the experiment on CAKI-1; 10.1 µM (inactive) in the experiment on BT-549. Also, the results for the GI50 in the experiment on CCRF-CEM and with KM12 were 9.82 µM (inactive) and 7.05 µM (inactive), respectively.
In the case of `C=C(CCCCCCCCC)CC(=O)SCCNC(=O)CCNC(=O)C(O)C(C)(C)COP(=O)(O)OP(=O)(O)OCC1OC(n2cnc3c(N)ncnc32)C(O)C1OP(=O)(O)O` (stereo not given), the GI50 is 38.3 µM (inactive) in the experiment on LOX IMVI; 36.1 µM (inactive) in the experiment on HL-60; 11.8 µM (inactive) in the experiment on NCI-H522; 51.3 µM (inactive) with SF-539; > 100 µM (inactive) in the experiment on ACHN; 21.1 µM (inactive) with UACC-62. The GI50 with SW-620 was > 100 µM (inactive); in the experiment with HOP-62 it was 40.9 µM (inactive); in the experiment on NCI-H460 it was 35.4 µM (inactive); with RXF 393, > 71.1 µM (inactive); in the experiment on MCF7, > 87.5 µM (inactive); in the experiment on NCI-H226, > 100 µM (inactive). Further, the GI50 in the experiment on DU-145 was > 100 µM (inactive); in the experiment on SR, 36.4 µM (inactive); in the experiment with RPMI-8226, 23.8 µM (inactive); with COLO 205, > 100 µM (inactive); with CAKI-1, > 100 µM (inactive); with BT-549, > 60.8 µM (inactive). Also, the results for the GI50 in the experiment with CCRF-CEM and with KM12 were > 70.6 µM (inactive) and 52.6 µM (inactive), respectively.
`Cc1ccc(S(=O)(=O)N2CCN(S(=O)(=O)c3ccc(C)cc3)CCN(S(=O)(=O)c3ccc(C)cc3)Cc3cc(C#N)c(C#N)cc3CN(S(=O)(=O)c3ccc(C)cc3)CC2)cc1`: the GI50 with LOX IMVI, with HL-60, with NCI-H522, in the experiment with SF-539, in the experiment with ACHN and in the experiment with UACC-62 was > 100 µM (inactive) throughout. In addition, the GI50 in the experiment on SW-620 is > 100 µM (inactive); with HOP-62, > 100 µM (inactive); with NCI-H460, > 100 µM (inactive); in the experiment on RXF 393, > 100 µM (inactive); in the experiment on MCF7, > 100 µM (inactive); with NCI-H226, 56.2 µM (inactive). For the same molecule, the GI50 in the experiment on DU-145, in the experiment with SR, in the experiment with RPMI-8226, with COLO 205, in the experiment on CAKI-1 and in the experiment with BT-549 was > 100 µM (inactive) throughout. Also, the GI50 with CCRF-CEM and in the experiment with KM12 was > 100 µM (inactive) each time.
Consider `COc1cc2c(c(O)c1OC)-c1c(cc(OC)c(OC)c1OC)CC(C)C(C)C2` (stereo not given) [GOMISIN K3], for which the GI50 was 49.9 µM (inactive) in the experiment with LOX IMVI; 25.5 µM (inactive) with HL-60; 44.6 µM (inactive) in the experiment on NCI-H522; 66.1 µM (inactive) in the experiment on SF-539; 39.1 µM (inactive) in the experiment with ACHN; 43.1 µM (inactive) in the experiment on UACC-62. Moreover, the GI50 is 70.3 µM (inactive) in the experiment with SW-620; > 100 µM (inactive) in the experiment on HOP-62; 31.2 µM (inactive) in the experiment on NCI-H460; 30.9 µM (inactive) in the experiment on RXF 393; 33 µM (inactive) with MCF7; 42.8 µM (inactive) in the experiment on NCI-H226. For the same molecule, the GI50 was 45.8 µM (inactive) in the experiment on DU-145; 31.3 µM (inactive) in the experiment with SR; 39.4 µM (inactive) in the experiment on RPMI-8226; 32 µM (inactive) in the experiment on COLO 205; 42.8 µM (inactive) in the experiment on CAKI-1; 40.8 µM (inactive) in the experiment with BT-549. The results for the GI50 in the experiment with CCRF-CEM and with KM12 were 23.4 µM (inactive) and 61.1 µM (inactive), respectively.
For the molecule `Cc1ccc(-c2cc(-c3cc(-c4ccc(C)cc4C)[nH]n3)[nH]n2)c(C)c1`, the GI50 with LOX IMVI was 19.9 µM (inactive); in the experiment on HL-60, 0.027 µM (active); in the experiment on NCI-H522 it was 13.9 µM (inactive); in the experiment with SF-539 it was 17 µM (inactive); with ACHN it was 11.5 µM (inactive); in the experiment with UACC-62, 24.8 µM (inactive). The GI50 in the experiment on SW-620 is 11.8 µM (inactive); with HOP-62, 13.9 µM (inactive); in the experiment on NCI-H460 it was 7.93 µM (inactive); in the experiment on RXF 393 it was 14.4 µM (inactive); in the experiment on MCF7, 15 µM (inactive); in the experiment on NCI-H226 it was 20.5 µM (inactive). Further, the GI50 in the experiment on DU-145 was 16.3 µM (inactive); in the experiment on SR it was 10.2 µM (inactive); in the experiment on RPMI-8226 it was 2.66 µM (inactive); in the experiment on COLO 205, 12.7 µM (inactive); in the experiment on CAKI-1, 18.8 µM (inactive); in the experiment on BT-549, 21.9 µM (inactive). The GI50 is 0.71 µM (active) with CCRF-CEM and 17.7 µM (inactive) in the experiment with KM12.
As to `C[n+]1c(/C=C/c2ccc(O)c3ncccc23)[se]c2ccccc21`, the GI50 was 2.33 µM (inactive) in the experiment on LOX IMVI; 2.55 µM (inactive) in the experiment on HL-60; 2.58 µM (inactive) in the experiment with NCI-H522; 2.86 µM (inactive) in the experiment on SF-539; 1.92 µM (inactive) in the experiment with ACHN; 3.14 µM (inactive) with UACC-62. The GI50 in the experiment with SW-620 is 3.98 µM (inactive); with HOP-62, 3.3 µM (inactive); with NCI-H460, 2.51 µM (inactive); in the experiment with RXF 393, 8.67 µM (inactive); in the experiment with MCF7 it was 1.58 µM (inactive); in the experiment with NCI-H226 it was 11.5 µM (inactive). For the same molecule, the GI50 with DU-145 is 4.26 µM (inactive); with SR, 1.64 µM (inactive); with RPMI-8226, 5.01 µM (inactive); with COLO 205, 5.58 µM (inactive); with CAKI-1, 5.01 µM (inactive); in the experiment on BT-549, 6.53 µM (inactive). Besides, the GI50 in the experiment with CCRF-CEM was 0.92 µM (active); with KM12, 2.48 µM (inactive).
